For 16 molecules, Tm shift results are on record in PubChem BioAssay AID388 (SGCOxCompounds, 2006).

The target of one assay is 15-hydroxyprostaglandin dehydrogenase [NAD(+)] (Homo sapiens) (UniProt P15428). The assay can be described thus: HPGD binders by thermal shift, biophysical, DSF, SYPRO orange, purified protein (AID 388). The conditions noted are these: at 10 µM, buffer 10 mM HEPES, pH 7.5, NaCl 150 mM, NADH 40 µM, active compounds read high.
15-hydroxyprostaglandin dehydrogenase [NAD(+)] (Homo sapiens), sequence (P15428 whole entry, looked up): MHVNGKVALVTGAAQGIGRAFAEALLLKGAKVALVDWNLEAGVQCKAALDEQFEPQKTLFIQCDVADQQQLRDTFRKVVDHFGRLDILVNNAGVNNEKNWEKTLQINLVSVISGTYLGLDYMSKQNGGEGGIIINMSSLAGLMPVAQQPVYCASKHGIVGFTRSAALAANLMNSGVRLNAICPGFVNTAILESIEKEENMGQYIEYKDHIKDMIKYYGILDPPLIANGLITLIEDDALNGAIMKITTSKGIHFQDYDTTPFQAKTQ
With `CN(CCOc1ccc(CC2SC(=O)NC2=O)cc1)c1ccccn1` (stereo unspecified), the Tm shift was 2.5 Celsius.

The assay is the same for the next values; noted with them: at 10 µM, buffer 10 mM HEPES, pH 7.5, NaCl 150 mM, active compounds read high.
With `O=C1CC(c2ccc(O)cc2)Oc2cc(O)cc(O)c21` (stereo unspecified), the Tm shift is 3.1 Celsius.

For the molecule `CC1=CC(=O)C=C(C)C1=O`, the Tm shift was 6.05 Celsius.

Regarding `COc1cc([C@@H]2Oc3cc([C@@H]4Oc5cc(O)cc(O)c5C(=O)[C@H]4C)ccc3O[C@H]2CO)ccc1O`, the Tm shift was 2.4 Celsius.

As to `C[C@@]1(c2ccc(O)cc2)CC(=O)c2c(O)cc(O)cc2O1`, the Tm shift was 2.25 Celsius.

On to `COc1ccc2c(c1)c(CC(=O)O)c(C)n2C(=O)c1ccc(Cl)cc1`, for which the Tm shift is 2.1 Celsius.

Regarding `O=C(O)c1cccnc1Nc1cccc(C(F)(F)F)c1`, the Tm shift was 2.1 Celsius.

For the molecule `O=c1c(-c2ccc(O)cc2)coc2cc(O)cc(O)c12`, the Tm shift was 2.12 Celsius.

In the case of `CCc1nnc(NS(=O)(=O)c2ccc(NC(=O)c3ccc(Cl)cc3Cl)cc2)s1`, the Tm shift was 2.2 Celsius.

With `CCc1nnc(NS(=O)(=O)c2ccc(NC(=O)/C=C/c3ccc(F)cc3)cc2)s1`, the Tm shift was 2.9 Celsius.

With `O=c1cc(-c2ccccc2)oc2cc(O)c(O)c(O)c12`, the Tm shift was 2.9 Celsius.

Regarding `CCc1ccc(CCOc2ccc(CC3SC(=O)CC3=O)cc2)nc1` (stereo unspecified), the Tm shift is 2.28 Celsius.

With `Cc1c(O)cc(O)c2c1OC(c1ccc(O)c(O)c1)C(=O)C2=O` (stereo unspecified), the Tm shift is 2.5 Celsius.

Regarding `O=c1cc(-c2ccc(O)c(O)c2)oc2cc(O)cc(O)c12`, the Tm shift is 2.19 Celsius.

In the case of `O=C1NC(=O)c2c1c1c3ccccc3[nH]c1c1[nH]c3cc(Br)ccc3c21`, the Tm shift is 2.11 Celsius.

For the molecule `CC1(C)[C@@H](OC(=O)CCC(=O)O)CC[C@]2(C)[C@H]3C(=O)C=C4[C@@H]5C[C@@](C)(C(=O)O)CC[C@]5(C)CC[C@@]4(C)[C@]3(C)CC[C@@H]12`, the Tm shift is 2.35 Celsius.
